Reference: patent US4230850A, “3-Substituted-4-aminoalkoxy-5,6-condensed ring-2-pyranones” (LIPHA, Lyonnaise Industrielle Pharmaceutique, priority 1976, dated 1980)

Tests used:
[1] = test system: phosphodiesterase of cyclic AMP; experiment: inhibition of the phosphodiesterase of cyclic AMP in vitro; type: biochemical; set-up: unit not given beside the values; settings: measured in vitro; unit not given
Description: The compounds of the invention are capable of inhibiting the phosphodiesterase of cyclic AMP (adenosine monophosphate).
Table II gives the inhibition indices (ID50), measured in vitro, for some of the compounds of the invention.

femoral artery = femoral artery rate of flow, electromagnetic flow meter, anaesthetised dog; type: in vivo; settings: dog anaesthetised with Pentobarbital, papaverine = 1
Description: The coefficients given in Table IV are expressed relatively to papaverine, which is given the coefficient 1, for the femoral dilation which it causes under similar conditions.

vertebral rate of flow = vertebral rate of flow in the anaesthetised dog; type: in vivo; settings: papaverine = 1
Procedure: Likewise, the vasodilation produced by the compounds of the invention is measured by means of the vertebral rate of flow in the anaesthetised dog.

[2] = test system: citric acid aerosol cough; experiment: citric acid aerosol test on the guinea pig (anti-tussive); type: in vivo; settings: administered in equitoxic dose per os
Description: The compounds of the invention were compared with codeine.

[3] = test system: intraventricular coronary artery; experiment: rate of flow of the intraventricular coronary artery, electromagnetic flow meter, anaesthetised dog; type: in vivo; settings: intravenous, Dipyridamol = 100
Procedure: The rate of flow of the intraventricular coronary artery was measured with an electromagnetic flow meter on the anaesthetised dog.
The different test compounds, administered intravenously, have caused considerable increases in the rate of flow, as reported in Table I below (the standard used for comparison being 2,6-di-[di-(2-hydroxyethyl)amino]-4,8-dipiperidinopyrimido-[5,4-d]-pyrimidine, which has the B.P.C. approved name of "Dipyridamole").

[4] = test system: rats made hypertensive by the Goldblatt technique; experiment: decrease in hypertension in rats made hypertensive by the Goldblatt technique; type: in vivo, rat; settings: oral, (HS) or (S) given after value, not defined
Procedure: Anti-hypertensive (hypotensive) activity has been found with the compounds of the invention. With rats made hypertensive by the Goldblatt technique (M. GOLDBLATT, J. LUNCH, R. F. MANZAL and W. W. SUMMERVILLE, J. of Exper. Med. 1934, 59, 347-379), decreases in hypertension were recorded after oral administration of the test compound. By way of example, Table III gives the decreases obtained with some of the compounds.

[5] = test system: mice placed in a confined atmosphere; experiment: protection against anoxia: survival time of mice placed in a confined atmosphere; type: in vivo, mouse; settings: oral
Description: As well as the vasodilatory activity, a strong protective action against the effects of anoxia has been found for the compounds of the invention. By way of example, Table VI indicates as a percentage the increase in the survival time caused by oral administration of certain compounds to mice placed in a confined atmosphere.

SMILES: CN(C)CCCOc1c(-c2ccccc2)c(=O)oc2ccccc12 [Example 4, 4-(3'-Dimethylaminopropoxy)-3-phenyl-coumarin]
- ID50 (inhibition indices) [1]: 150
- Coefficient/Papaverine (femoral dilation) (femoral artery): 60
- Coefficient/Papaverine (vertebral rate of flow) (vertebral rate of flow): 6

SMILES: COc1ccc2c3c1O[C@H]1[C@@H](O)C=C[C@H]4[C@@H](C2)N(C)CC[C@@]341 [Codeine, reference compound]
- % inhibition on average of number of coughs [2]: 55%

SMILES: OCCN(CCO)c1nc(N2CCCCC2)c2nc(N(CCO)CCO)nc(N3CCCCC3)c2n1 [Dipyridamol, 2,6-di-[di-(2-hydroxyethyl)amino]-4,8-dipiperidinopyrimido-[5,4-d]-pyrimidine, reference compound]
- Coefficient related to Dipyridamol [3]: 100

SMILES: O=c1oc2c(c(OCCN3CCOCC3)c1-c1ccccc1)CCCC2 [drawing 49]
- % inhibition on average of number of coughs [2]: 85%

SMILES: CC(COc1c2c(oc(=O)c1-c1ccccc1)CCCCCC2)CN1CCOCC1 (stereo not drawn) [Example 51, 4-(3'-Morpholino-2'-methylpropoxy)-3-phenyl[1-2-b]-cyclooctano-(2H)-pyran-2-one]
- % inhibition on average of number of coughs [2]: 60%

SMILES: O=c1oc2c(O)cccc2c(OCCN2CCOCC2)c1-c1ccccc1 [Example 35, 8-Hydroxy-4-(2'-morpholinoethoxy)-3-phenyl-coumarin]
- Decrease in hypertension in mm.Hg., 3 to 5 hours after administration [4]: -44 mm.Hg.
- Coefficient/Papaverine (femoral dilation) (femoral artery): 8
- Coefficient/Papaverine (vertebral rate of flow) (vertebral rate of flow): 10

SMILES: O=c1oc2ccccc2c(OCCN2CCOCC2)c1-c1ccc(Br)cc1 [Example 7, 3-(4'-Bromophenyl)-4-(2"-morpholinoethoxy)-coumarin]
- Average % increase in survival time [5]: +50%

SMILES: CC(COc1c2c(oc(=O)c1-c1ccccc1)CCCC2)CN1CCOCC1 (stereo not drawn) [Example 46, 4-(3'-Morpholino-2'-methylpropoxy)-3-phenyl-5,6,7,8-tetrahydrocoumarin]
- ID50 (inhibition indices) [1]: 600
- Average % increase in survival time [5]: +40%

SMILES: O=c1oc2c(c(OCCN3CCOCC3)c1-c1ccccc1)CCCC2 [Example 14, 4-(2'-Morpholinoethoxy)-3-phenyl-5,6,7,8-tetrahydro-coumarin]
- Average % increase in survival time [5]: +50%

SMILES: CN1CCN(CCCOc2c(-c3ccccc3)c(=O)oc3ccccc23)CC1 [Example 27, 4-[3-(4"-Methyl-1"-piperazinyl)-propoxy]-3-phenyl-coumarin]
- Coefficient/Papaverine (vertebral rate of flow) (vertebral rate of flow): 3

SMILES: COc1ccc2c(OCCN3CCOCC3)c(-c3ccccc3)c(=O)oc2c1 [Example 20, 7-Methoxy-4-(2'-morpholinoethoxy)-3-phenyl-coumarin]
- Coefficient/Papaverine (femoral dilation) (femoral artery): 12

SMILES: O=c1oc2ccccc2c(OCCN2CCCCC2)c1-c1ccccc1 [Example 3, 4-(2'-Piperidinoethoxy)-3-phenyl-coumarin]
- ID50 (inhibition indices) [1]: 150

SMILES: O=c1oc2c(c(OCCN3CCOCC3)c1-c1ccccc1)CCc1ccccc1-2 [Example 44, 4-(2'-Morpholinoethoxy)-3-phenyl-5,6-dihydro-[h]-benzocoumarin]
- % inhibition on average of number of coughs [2]: 48%

SMILES: O=c1oc2ccccc2c(OCC(O)CN2CCCCC2)c1-c1ccccc1 (stereo not drawn) [Example 37, 4-(3'-Piperidino-2'-hydroxypropoxy)-3-phenyl-coumarin]
- Coefficient/Papaverine (femoral dilation) (femoral artery): 12
- Coefficient/Papaverine (vertebral rate of flow) (vertebral rate of flow): 9

SMILES: Cc1ccc2oc(=O)c(-c3ccccc3)c(OCCCN3CCOCC3)c2c1
- Coefficient related to Dipyridamol [3]: 100

SMILES: O=c1oc2cccc(OCCN3CCOCC3)c2c(OCCN2CCOCC2)c1-c1ccccc1 [Example 23, Bis-4,5-(2'-morpholinoethoxy)-3-phenyl-coumarin]
- Coefficient related to Dipyridamol [3]: 300
- Coefficient/Papaverine (femoral dilation) (femoral artery): 6
- Coefficient/Papaverine (vertebral rate of flow) (vertebral rate of flow): 4.5

SMILES: COc1cccc2c(OCCN3CCOCC3)c(-c3ccccc3)c(=O)oc12 [Example 21, 8-Methoxy-4-(2'-morpholinoethoxy)-3-phenyl-coumarin]
- Coefficient/Papaverine (femoral dilation) (femoral artery): 13
- Coefficient/Papaverine (vertebral rate of flow) (vertebral rate of flow): 5

SMILES: O=c1oc2c(c(OCCCN3CCOCC3)c1-c1ccccc1)CCCC2 [Example 47, 4-(3'-Morpholinopropoxy)-3-phenyl-5,6,7,8-tetrahydrocoumarin]
- ID50 (inhibition indices) [1]: 200

SMILES: COc1ccc(Cc2nccc3cc(OC)c(OC)cc23)cc1OC [Papaverine, reference compound]
- Coefficient/Papaverine (femoral dilation) (femoral artery): 1
- Coefficient/Papaverine (vertebral rate of flow) (vertebral rate of flow): 1

SMILES: CC(COc1c(-c2ccccc2)c(=O)oc2ccccc12)CN1CCOCC1 (stereo not drawn) [Example 19, 4-(3'-Morpholino-2'-methylpropoxy)-3-phenyl-coumarin]
- ID50 (inhibition indices) [1]: 600
- Decrease in hypertension in mm.Hg., 3 to 5 hours after administration [4]: -18 mm.Hg.
- Coefficient/Papaverine (vertebral rate of flow) (vertebral rate of flow): 3
- Average % increase in survival time [5]: +46%

SMILES: O=c1oc2ccccc2c(OCCCN2CCOCC2)c1-c1ccccc1 [Example 16, 4-(3'-Morpholinopropoxy)-3-phenyl-coumarin]
- Coefficient related to Dipyridamol [3]: 250

SMILES: Cc1c(OCCN2CCOCC2)c2ccccc2oc1=O [Example 9, 3-Methyl-4-(2'-morpholinoethoxy)-coumarin]
- Average % increase in survival time [5]: +30%

SMILES: O=c1oc2c(c(OCCN3CCOCC3)c1-c1ccccc1)CCCC2 [drawing 39]
- Coefficient/Papaverine (vertebral rate of flow) (vertebral rate of flow): 5.5

SMILES: O=c1oc2cccc(O)c2c(OCCN2CCOCC2)c1-c1ccccc1 [Example 30, 4-(2'-Morpholinoethoxy)-5-hydroxy-3-phenyl-coumarin]
- Average % increase in survival time [5]: +65%
- % inhibition on average of number of coughs [2]: 47%

SMILES: O=c1oc2c(c(OCCN3CCOCC3)c1-c1ccccc1)CCCC2 [drawing 27]
- Coefficient/Papaverine (femoral dilation) (femoral artery): 12

SMILES: O=c1oc2c(c(OCCN3CCOCC3)c1-c1ccccc1)-c1ccccc1C2c1ccccc1 (stereo not drawn) [Example 45, 4-(2'-Morpholinoethoxy)-3,9-diphenyl-[2-1-b]-indeno-[2H]-pyran-2-one]
- Decrease in hypertension in mm.Hg., 3 to 5 hours after administration [4]: -49 mm.Hg.
- Coefficient/Papaverine (femoral dilation) (femoral artery): 60

SMILES: O=c1oc2ccccc2c(OCCN2CCOCC2)c1-c1ccc(F)cc1 [Example 11, 3-(4'-Fluorophenyl)-4-(2"-morpholinoethoxy)-coumarin]
- Average % increase in survival time [5]: +45%

SMILES: Cc1ccc2oc(=O)c(-c3ccccc3)c(OCCN3CCOCC3)c2c1 [Example 12, 6-Methyl-4-(2'-morpholinoethoxy)-3-phenyl-coumarin]
- Coefficient related to Dipyridamol [3]: 150

SMILES: CCCCc1c(OCCN2CCOCC2)c2c(OCCN3CCOCC3)cc(OCCN3CCOCC3)cc2oc1=O [Example 5, 3-Butyl-4,5,7-tri(2'-morpholinoethoxy)-coumarin]
- Coefficient/Papaverine (vertebral rate of flow) (vertebral rate of flow): 2

SMILES: O=c1oc2ccccc2c(OCCN2CCOCC2)c1-c1ccccc1 [Example 2, 4-(2'-Morpholinoethoxy)-3-phenyl-coumarin]
- Coefficient related to Dipyridamol [3]: 150
- Decrease in hypertension in mm.Hg., 3 to 5 hours after administration [4]: -34 mm.Hg.
- Coefficient/Papaverine (vertebral rate of flow) (vertebral rate of flow): 2
- Average % increase in survival time [5]: +41%
